pIC50: −log10 of the molar value. Positions of bridges follow the written chain, without caps; N, C: chain ends. Non-standard residues stand in square brackets, D forms with d. Residues, ends and D or L forms follow the SMILES beside them. *: point of attachment. Ala(4-thiazolyl) = N[C@@H](Cc1cscn1)C(=O)O; Bip = N[C@@H](Cc1ccc(-c2ccccc2)cc1)C(=O)O; Ala(cPr) = N[C@@H](CC1CC1)C(=O)O; NMeF = CN[C@@H](Cc1ccccc1)C(=O)O; Cha = N[C@@H](CC1CCCCC1)C(=O)O; Tle = CC(C)(C)[C@H](N)C(=O)O; Carboxymethyl = O=C(O)C*; NMeA = CN[C@@H](C)C(=O)O; Sar = CNCC(=O)O

The target in this experiment is T1, human PD-1 (Jurkat-PD-1 cells) / PE-labeled human PD-L1-Ig (Homo sapiens, UniProt Q15116).
T1 construct: expressed in transfected cells; host or cells: Jurkat cell line over-expressing human PD-1
T1 sequence (Q15116 25-288): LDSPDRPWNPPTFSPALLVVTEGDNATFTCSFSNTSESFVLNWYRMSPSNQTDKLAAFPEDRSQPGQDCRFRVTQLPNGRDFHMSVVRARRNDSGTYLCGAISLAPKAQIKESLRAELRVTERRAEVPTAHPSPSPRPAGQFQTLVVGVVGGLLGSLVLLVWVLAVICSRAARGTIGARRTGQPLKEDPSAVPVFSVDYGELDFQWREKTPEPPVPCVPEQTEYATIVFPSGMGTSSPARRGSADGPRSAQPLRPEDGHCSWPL
The experiment can be described thus: Jurkat-PD-1 Cell Binding High-Content Screening Assay (CBA); Jurkat hPD1-PDL1 assay. As to conditions: Jurkat cell line over-expressing human PD-1; PE-labeled PD-L1-Ig 20 nM final; compound incubated 2 hours at 37° C.; read-out: Jurkat HPD1-PDL1 IC50. In a few lines: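 Cell binding by imaging: Jurkat line stably over-expressing human PD-1, compound pre-exposure 2 h at 37° C, PE-conjugated PD-L1-Ig 20 nM final, medium DMEM containing 10% FCS.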
Regarding `CC(C)C[C@@H]1NC(=O)[C@H](CCCNC(=N)N)NC(=O)[C@H](Cc2ccccc2)N(C)C(=O)[C@H](C)N(C)C(=O)[C@H](CCCNC(=N)N)NC(=O)[C@H](Cc2ccc(-c3ccccc3)cc2)NC(=O)[C@H](C(C)C)NC(=O)[C@H](Cc2c[nH]c3ccccc23)NC(=O)[C@H](CC(=O)O)NC(=O)[C@H](Cc2ccc(O)cc2)NC(=O)[C@H](Cc2ccccc2)NC(=O)CSC[C@@H](C(=O)NCC(N)=O)NC(=O)[C@H]([C@@H](C)O)NC(=O)[C@H](C(C)C)NC1=O` [Example 1129] ({CH2CO}-FYDWV[Bip]R[NMeA][NMeF]RLVTCG-NH2; thioether N-14), the pIC50 was 6.30.
Take `CC(C)C[C@@H]1NC(=O)[C@H](C)NC(=O)CN(C)C(=O)[C@H](C)N(C)C(=O)[C@H](C(C)C)NC(=O)[C@H](Cc2ccc(-c3ccccc3)cc2)NC(=O)[C@H](CC(C)C)NC(=O)[C@H](Cc2c[nH]c3ccccc23)NC(=O)[C@H](CC(=O)O)NC(=O)[C@H](Cc2ccc(O)cc2)NC(=O)[C@H](Cc2ccccc2)NC(=O)CSC[C@@H](C(=O)NCC(N)=O)NC(=O)[C@H](CO)NC(=O)[C@H](C(C)C)NC1=O` [Example 1130] ({CH2CO}-FYDWL[Bip]V[NMeA][Sar]ALVSCG-NH2; thioether N-14): the negative-log IC50 (pIC50) was 6.30.
Turning to `CC(C)C[C@@H]1NC(=O)[C@H](Cc2c[nH]c3ccccc23)NC(=O)[C@H](CC(=O)O)NC(=O)[C@H](Cc2ccc(O)cc2)NC(=O)[C@H](Cc2cscn2)NC(=O)CSC[C@@H](C(=O)NCC(N)=O)NC(=O)[C@H](CO)NC(=O)[C@H](C(C)C)NC(=O)[C@H](CC(C)C)NC(=O)[C@H](CC(N)=O)NC(=O)CN(C)C(=O)[C@H](C)N(C)C(=O)[C@H](C(C)C)NC(=O)[C@H](Cc2ccc(-c3ccccc3)cc2)NC1=O` [Example 1132] ({CH2CO}-[Ala(4-thiazolyl)]YDWL[Bip]V[NMeA][Sar]NLVSCG-NH2; thioether N-14), the pIC50 was 6.28.
`CC[C@H](C)[C@@H]1NC(=O)[C@H](Cc2ccc(-c3ccccc3)cc2)NC(=O)[C@H](CC(C)C)NC(=O)[C@H](Cc2c[nH]c3ccccc23)NC(=O)[C@H](CC(=O)O)NC(=O)[C@H](Cc2ccc(O)cc2)NC(=O)[C@H](Cc2ccccc2)NC(=O)CSC[C@@H](C(=O)NCC(N)=O)NC(=O)[C@H](CO)NC(=O)[C@H](C(C)C)NC(=O)[C@H](CC(C)C)NC(=O)[C@H](CC(N)=O)NC(=O)CN(C)C(=O)[C@H](C)N(C)C1=O` [Example 1133] ({CH2CO}-FYDWL[Bip]I[NMeA][Sar]NLVSCG-NH2; thioether N-14): the pIC50 is 6.27.
For the compound `CC(C)C[C@@H]1NC(=O)[C@H](Cc2c[nH]c3ccccc23)NC(=O)[C@H](CC(=O)O)NC(=O)[C@H](Cc2ccc(O)cc2)NC(=O)[C@H](Cc2ccccc2)NC(=O)CSC[C@@H](C(=O)N[C@@H](C)C(N)=O)NC(=O)[C@H](CO)NC(=O)[C@H](C(C)C)NC(=O)[C@H](CC(C)C)NC(=O)[C@H](CCCCN)NC(=O)CN(C)C(=O)[C@H](C)N(C)C(=O)[C@H](CCC(=O)O)NC(=O)[C@H](Cc2ccc(-c3ccccc3)cc2)NC1=O` [Example 1134] ({CH2CO}-FYDWL[Bip]E[NMeA][Sar]KLVSCA-NH2; thioether N-14), the pIC50 is 6.27.
The value for `CC(C)C[C@@H]1NC(=O)[C@H](Cc2c[nH]c3ccccc23)NC(=O)[C@H](CC(=O)O)NC(=O)[C@H](Cc2ccc(O)cc2)NC(=O)[C@H](Cc2c[nH]c3ccccc23)NC(=O)CSC[C@@H](C(=O)NCC(N)=O)NC(=O)[C@H](CO)NC(=O)[C@H](C(C)C)NC(=O)[C@H](CC(C)C)NC(=O)[C@H](CC(N)=O)NC(=O)CN(C)C(=O)[C@H](C)N(C)C(=O)[C@H](C(C)C)NC(=O)[C@H](Cc2ccc(-c3ccccc3)cc2)NC1=O` [Example 1135] ({CH2CO}-WYDWL[Bip]V[NMeA][Sar]NLVSCG-NH2; thioether N-14) was 6.26; that for `CC(C)C[C@@H]1NC(=O)[C@H](Cc2c[nH]c3ccccc23)NC(=O)[C@H](CC(=O)O)NC(=O)[C@H](Cc2ccc(O)cc2)NC(=O)[C@H](Cc2ccccc2)NC(=O)CSC[C@@H](C(=O)N[C@@H](C)C(N)=O)NC(=O)[C@H](CCC(N)=O)NC(=O)[C@H](C(C)C)NC(=O)[C@H](CC(C)C)NC(=O)[C@H](CC(N)=O)NC(=O)CN(C)C(=O)[C@H](C)N(C)C(=O)[C@H](C(C)C)NC(=O)[C@H](Cc2ccc(-c3ccccc3)cc2)NC1=O` [Example 1136] ({CH2CO}-FYDWL[Bip]V[NMeA][Sar]NLVQCA-NH2; thioether N-14) was 6.25; that for `CC(C)C[C@@H]1NC(=O)[C@H](Cc2c[nH]c3ccccc23)NC(=O)[C@H](CC(=O)O)NC(=O)[C@H](Cc2ccc(O)cc2)NC(=O)[C@H](Cc2ccc(OCC(=O)O)cc2)NC(=O)CSC[C@@H](C(=O)NCC(N)=O)NC(=O)[C@H](CO)NC(=O)[C@H](C(C)C)NC(=O)[C@H](CC(C)C)NC(=O)[C@H](CC(N)=O)NC(=O)CN(C)C(=O)[C@H](C)N(C)C(=O)[C@H](C(C)C)NC(=O)[C@H](Cc2ccc(-c3ccccc3)cc2)NC1=O` [Example 1137] ({CH2CO}-Y(Carboxymethyl)YDWL[Bip]V[NMeA][Sar]NLVSCG-NH2; thioether N-14) was 6.25.
The value for `COc1ccc(C[C@@H]2NC(=O)CSC[C@@H](C(=O)NCC(N)=O)NC(=O)[C@H](CO)NC(=O)[C@H](C(C)C)NC(=O)[C@H](CC(C)C)NC(=O)[C@H](CC(N)=O)NC(=O)CN(C)C(=O)[C@H](C)N(C)C(=O)[C@H](C(C)C)NC(=O)[C@H](Cc3ccc(-c4ccccc4)cc3)NC(=O)[C@H](CC(C)C)NC(=O)[C@H](Cc3c[nH]c4ccccc34)NC(=O)[C@H](CC(=O)O)NC(=O)[C@H](Cc3ccc(O)cc3)NC2=O)cc1` [Example 1138] ({CH2CO}-Y(Me)YDWL[Bip]V[NMeA][Sar]NLVSCG-NH2; thioether N-14) was 6.24; that for `COc1ccc(C[C@@H]2NC(=O)[C@H](Cc3ccccc3)NC(=O)CSC[C@@H](C(=O)N[C@@H](C)C(N)=O)NC(=O)[C@H](CO)NC(=O)[C@H](C(C)C)NC(=O)[C@H](CC(C)C)NC(=O)[C@H](CC(N)=O)NC(=O)CN(C)C(=O)[C@H](C)N(C)C(=O)[C@H](C(C)C)NC(=O)[C@H](Cc3ccc(-c4ccccc4)cc3)NC(=O)[C@H](CC(C)C)NC(=O)[C@H](Cc3c[nH]c4ccccc34)NC(=O)[C@H](CC(=O)O)NC2=O)cc1` [Example 1139] ({CH2CO}-FY(Me)DWL[Bip]V[NMeA][Sar]NLVSCA-NH2; thioether N-14) was 6.23; that for `CC(C)C[C@@H]1NC(=O)[C@H](Cc2c[nH]c3ccccc23)NC(=O)[C@H](CC(=O)O)NC(=O)[C@H](Cc2ccc(O)cc2)NC(=O)[C@H](CC(N)=O)NC(=O)CSC[C@@H](C(=O)NCC(N)=O)NC(=O)[C@H](CO)NC(=O)[C@H](C(C)C)NC(=O)[C@H](CC(C)C)NC(=O)[C@H](CC(N)=O)NC(=O)CN(C)C(=O)[C@H](C)N(C)C(=O)[C@H](C(C)C)NC(=O)[C@H](Cc2ccc(-c3ccccc3)cc2)NC1=O` [Example 1140] ({CH2CO}-NYDWL[Bip]V[NMeA][Sar]NLVSCG-NH2; thioether N-14) was 6.22.
As for `CC(C)C[C@@H]1NC(=O)CSC[C@@H](C(=O)NCC(N)=O)NC(=O)[C@H](CO)NC(=O)[C@H](C(C)C)NC(=O)[C@H](CC(C)C)NC(=O)[C@H](CC(N)=O)NC(=O)CN(C)C(=O)[C@H](C)N(C)C(=O)[C@H](C(C)C)NC(=O)[C@H](Cc2ccc(-c3ccccc3)cc2)NC(=O)[C@H](CC(C)C)NC(=O)[C@H](Cc2c[nH]c3ccccc23)NC(=O)[C@H](CC(=O)O)NC(=O)[C@H](Cc2ccc(O)cc2)NC1=O` [Example 1141] ({CH2CO}-LYDWL[Bip]V[NMeA][Sar]NLVSCG-NH2; thioether N-14), the pIC50 was 6.21.
Regarding `CC[C@H](C)[C@@H]1NC(=O)[C@H](CC(C)C)NC(=O)[C@H](CC(N)=O)NC(=O)CN(C)C(=O)[C@H](C)N(C)C(=O)[C@H](C(C)C)NC(=O)[C@H](Cc2ccc(-c3ccccc3)cc2)NC(=O)[C@H](CC(C)C)NC(=O)[C@H](Cc2c[nH]c3ccccc23)NC(=O)[C@H](CC(=O)O)NC(=O)[C@H](Cc2ccc(O)cc2)NC(=O)[C@H](Cc2ccccc2)NC(=O)CSC[C@@H](C(=O)NCC(N)=O)NC(=O)[C@H](CO)NC1=O` [Example 1142] ({CH2CO}-FYDWL[Bip]V[NMeA][Sar]NLISCG-NH2; thioether N-14), the pIC50 is 6.21.
Turning to `CC(C)C[C@@H]1NC(=O)[C@H](CCCNC(=N)N)NC(=O)[C@H](Cc2ccccc2)N(C)C(=O)[C@H](C)N(C)C(=O)[C@H](CCCNC(=N)N)NC(=O)[C@H](Cc2ccc(-c3ccccc3)cc2)NC(=O)[C@H](C(C)C)NC(=O)[C@H](Cc2c[nH]c3ccccc23)NC(=O)[C@H](CC(=O)O)NC(=O)[C@H](Cc2ccc(O)cc2)NC(=O)[C@H](Cc2ccccc2)NC(=O)CSC[C@@H](C(=O)NCC(N)=O)NC(=O)[C@H](CO)NC(=O)[C@H](C(C)(C)C)NC1=O` [Example 1143] ({CH2CO}-FYDWV[Bip]R[NMeA][NMeF]RL[Tle]SCG-NH2; thioether N-14), the pIC50 was 6.21.
Take `CC(C)C[C@@H]1NC(=O)[C@H](Cc2c[nH]c3ccccc23)NC(=O)[C@H](CC(=O)O)NC(=O)[C@H](Cc2ccc(O)cc2)NC(=O)[C@H](Cc2ccccc2)NC(=O)CSC[C@@H](C(=O)N[C@@H](C)C(N)=O)NC(=O)[C@H](CO)NC(=O)[C@H](C(C)C)NC(=O)[C@H](CC2CC2)NC(=O)[C@H](CC(N)=O)NC(=O)CN(C)C(=O)[C@H](C)N(C)C(=O)[C@H](C(C)C)NC(=O)[C@H](Cc2ccc(-c3ccccc3)cc2)NC1=O` [Example 1144] ({CH2CO}-FYDWL[Bip]V[NMeA][Sar]N[Ala(cPr)]VSCA-NH2; thioether N-14): the pIC50 is 6.20.
For the compound `CC(C)C[C@@H]1NC(=O)[C@H](CC(N)=O)NC(=O)CN(C)C(=O)[C@H](C)N(C)C(=O)[C@H](C(C)C)NC(=O)[C@H](Cc2ccc(-c3ccccc3)cc2)NC(=O)[C@H](CC2CCCCC2)NC(=O)[C@H](Cc2c[nH]c3ccccc23)NC(=O)[C@H](CC(=O)O)NC(=O)[C@H](Cc2ccc(O)cc2)NC(=O)[C@H](Cc2ccccc2)NC(=O)CSC[C@@H](C(=O)NCC(N)=O)NC(=O)[C@H](CO)NC(=O)[C@H](C(C)C)NC1=O` [Example 1145] ({CH2CO}-FYDW[Cha][Bip]V[NMeA][Sar]NLVSCG-NH2; thioether N-14), the pIC50 is 6.19.

The values above are taken from US20240360178A1, “MACROCYCLIC IMMUNOMODULATORS” (Bristol-Myers Squibb Company, priority 2021, published 2024).
